Laboratory results reported in ChEMBL document CHEMBL5046284, “Structure-Based Design of a Chemical Probe Set for the 5-HT5A Serotonin Receptor” (J Med Chem, 2022).
Blank lines part the entries; values can stand above or below the compound they belong to. The source made the active and inactive calls.

Legend:
[1] = target: T1, 5-hydroxytryptamine receptor 5A (Homo sapiens, UniProt P47898); test: Displacement of [3H]-5-CT from human 5-HT5A receptor at 32 uM incubated for 2 hr by radioligand binding assay
Mus musculus [2] = test: Antiallodynic activity in IT dosed […] mouse model of spared nerve injury-induced neuropathic pain assessed as increase in paw withdrawal mechanical threshold measured after 30 mins by von Frey test; type: functional, organism-based
Mus musculus [3] = test: Sedative activity in IT dosed […] mouse assessed as effect on locomotor activity measured after 60 mins by rotarod test; type: toxicity, organism-based; settings: in vivo, icv_or_intrathecal, 1 h
Mus musculus [4] = test: Effect on baseline mechanical thresholds in IT dosed […] mouse measured after 30 mins by von Frey test; type: functional, organism-based
[5] = target: T1, 5-hydroxytryptamine receptor 5A; test: Displacement of [3H]-5-CT from human 5-HT5A receptor at 1 uM incubated for 2 hr by radioligand binding assay
[6] = target: T1, 5-hydroxytryptamine receptor 5A; test: Displacement of [3H]-5-CT from human 5-HT5A receptor at 100 uM incubated for 2 hr by radioligand binding assay
[7] = target: T1, 5-hydroxytryptamine receptor 5A; test: Antagonist activity at human 5-HT5AR assessed as […] of [35S]GTPgammaS binding at 100 uM incubated for 3 to 5 hrs; type: functional; settings: filed as antagonist, time 3-5 hrs
Homo sapiens = species: Homo sapiens; test: Binding affinity to human 5-HT5A receptor W117A mutant ssessed as fold reduction in binding by competition binding assay relative to control; settings: filed as agonist
[8] = target: T1, 5-hydroxytryptamine receptor 5A; test: Displacement of [3H]-5-CT from human 5-HT5A receptor incubated for 2 hr by radioligand binding assay
[9] = target: T2, Alpha-2A adrenergic receptor (Homo sapiens) (UniProt P08913); test: Agonist activity at ADRA2A (unknown origin) transfected in HTLA cells assessed as beta-arrestin 2 recruitment at 10 uM incubated for 18 to 20 hrs by luciferin based Tango assay; type: functional, cell-based; settings: time 18-20 hrs
T2 sequence (whole entry): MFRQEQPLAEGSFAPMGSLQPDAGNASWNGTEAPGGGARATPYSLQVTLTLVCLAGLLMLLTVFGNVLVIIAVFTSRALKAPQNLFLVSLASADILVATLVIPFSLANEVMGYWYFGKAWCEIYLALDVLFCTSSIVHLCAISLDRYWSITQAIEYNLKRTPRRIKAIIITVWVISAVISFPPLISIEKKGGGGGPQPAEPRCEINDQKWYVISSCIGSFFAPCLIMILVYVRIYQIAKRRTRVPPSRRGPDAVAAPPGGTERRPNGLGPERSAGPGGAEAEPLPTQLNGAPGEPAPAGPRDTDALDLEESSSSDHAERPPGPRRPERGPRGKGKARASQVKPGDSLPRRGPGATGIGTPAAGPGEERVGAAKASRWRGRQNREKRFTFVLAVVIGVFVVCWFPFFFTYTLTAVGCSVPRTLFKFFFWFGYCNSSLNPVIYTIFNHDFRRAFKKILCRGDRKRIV

[10] = target: Melatonin receptor type 1A (Homo sapiens) (UniProt P48039); test: Agonist activity at MTNR1A (unknown origin) transfected in HTLA cells assessed as beta-arrestin 2 recruitment at 10 uM incubated for 18 to 20 hrs by luciferin based Tango assay; type: functional, cell-based; settings: time 18-20 hrs
[11] = target: T3, 5-hydroxytryptamine receptor 1A (Homo sapiens) (UniProt P08908); test: (§1) Binding affinity to 5-HT1AR (unknown origin) assessed as inhibition constant
T3 sequence (whole entry): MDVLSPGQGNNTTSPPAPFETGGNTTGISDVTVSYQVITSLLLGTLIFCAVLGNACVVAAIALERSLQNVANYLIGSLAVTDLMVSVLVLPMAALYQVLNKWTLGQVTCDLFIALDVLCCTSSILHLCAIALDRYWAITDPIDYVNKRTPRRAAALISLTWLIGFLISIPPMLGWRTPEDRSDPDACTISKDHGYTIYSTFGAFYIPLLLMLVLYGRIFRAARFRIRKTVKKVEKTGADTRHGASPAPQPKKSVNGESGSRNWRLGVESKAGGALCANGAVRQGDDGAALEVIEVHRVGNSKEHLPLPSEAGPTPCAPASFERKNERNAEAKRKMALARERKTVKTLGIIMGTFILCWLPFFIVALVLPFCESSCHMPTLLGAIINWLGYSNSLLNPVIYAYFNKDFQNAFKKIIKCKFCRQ

[12] = target: 5-hydroxytryptamine receptor 1B (Homo sapiens, UniProt P28222); test: Binding affinity to 5-HT1BR (unknown origin) assessed as inhibition constant
[13] = target: 5-hydroxytryptamine receptor 1D (Homo sapiens, UniProt P28221); test: Binding affinity to 5-HT1DR (unknown origin) assessed as inhibition constant
[14] = target: 5-hydroxytryptamine receptor 2A (Homo sapiens, UniProt P28223); test: Binding affinity to 5-HT2AR (unknown origin) assessed as inhibition constant
[15] = target: 5-hydroxytryptamine receptor 2B (Homo sapiens, UniProt P41595); test: Binding affinity to 5-HT2BR (unknown origin) assessed as inhibition constant
[16] = target: T4, 5-hydroxytryptamine receptor 2C (Homo sapiens) (UniProt P28335); test: (§2) Binding affinity to 5-HT2CR (unknown origin) assessed as inhibition constant
T4 sequence (whole entry): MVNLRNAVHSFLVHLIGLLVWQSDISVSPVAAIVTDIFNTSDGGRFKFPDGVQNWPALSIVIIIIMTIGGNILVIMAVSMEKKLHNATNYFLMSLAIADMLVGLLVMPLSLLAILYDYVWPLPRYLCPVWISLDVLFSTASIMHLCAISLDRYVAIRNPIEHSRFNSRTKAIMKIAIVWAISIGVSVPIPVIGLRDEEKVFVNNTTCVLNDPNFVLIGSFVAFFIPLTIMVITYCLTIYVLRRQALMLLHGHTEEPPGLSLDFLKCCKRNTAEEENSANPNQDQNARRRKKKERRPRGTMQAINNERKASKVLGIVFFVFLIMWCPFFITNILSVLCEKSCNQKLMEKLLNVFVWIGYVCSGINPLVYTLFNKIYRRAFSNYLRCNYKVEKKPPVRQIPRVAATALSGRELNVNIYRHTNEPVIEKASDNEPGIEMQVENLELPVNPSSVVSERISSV

[17] = target: T5, 5-hydroxytryptamine receptor 3A (Homo sapiens) (UniProt P46098); test: (§3) Binding affinity to 5-HT3 (unknown origin) assessed as inhibition constant
T5 sequence (whole entry): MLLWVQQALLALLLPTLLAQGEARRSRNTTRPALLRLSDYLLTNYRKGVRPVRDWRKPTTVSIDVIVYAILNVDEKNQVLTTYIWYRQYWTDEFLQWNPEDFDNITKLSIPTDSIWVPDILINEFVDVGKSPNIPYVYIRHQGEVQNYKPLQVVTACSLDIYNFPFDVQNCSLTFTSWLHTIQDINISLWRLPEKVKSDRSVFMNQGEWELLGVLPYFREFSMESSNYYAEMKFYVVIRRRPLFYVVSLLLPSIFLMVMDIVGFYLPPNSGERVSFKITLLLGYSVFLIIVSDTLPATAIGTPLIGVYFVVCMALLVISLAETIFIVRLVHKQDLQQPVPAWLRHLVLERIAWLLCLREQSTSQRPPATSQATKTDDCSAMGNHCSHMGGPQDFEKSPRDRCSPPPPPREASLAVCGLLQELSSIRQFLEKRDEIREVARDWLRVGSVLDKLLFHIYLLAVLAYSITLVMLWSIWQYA

[18] = target: Atypical chemokine receptor 3 (Homo sapiens) (UniProt P25106); test: Agonist activity at CXCR7 (unknown origin) transfected in HTLA cells assessed as beta-arrestin 2 recruitment at 10 uM incubated for 18 to 20 hrs by luciferin based Tango assay; type: functional, cell-based; settings: time 18-20 hrs
[19] = target: 5-hydroxytryptamine receptor 7 (Homo sapiens) (UniProt P34969); test: Binding affinity to 5-HT7AR (unknown origin)
HEK-293T = test: Cytotoxicity against HEK293T cells assessed as reduction in cell viability at high concentration incubated for overnight; type: toxicity, cell-based; settings: human
[20] = target: T6, 5-hydroxytryptamine receptor 1A (Homo sapiens, UniProt P08908); test: as §1
T6 sequence (P08908 whole entry): T3 sequence (whole entry)

[21] = target: T7, 5-hydroxytryptamine receptor 2C (Homo sapiens, UniProt P28335); test: as §2
T7 sequence (P28335 whole entry): T4 sequence (whole entry)

[22] = target: T8, 5-hydroxytryptamine receptor 3A (Homo sapiens, UniProt P46098); test: as §3
T8 sequence (P46098 whole entry): T5 sequence (whole entry)

[23] = target: T1, 5-hydroxytryptamine receptor 5A; test: Antagonist activity at human 5-HT5AR assessed as inhibition of beta-arrestin 2 recruitment by measuring reduction in RLuc8-based luminescence incubated for 20 to 30 mins in absence of agonist by luminescence based analysis; type: functional; settings: filed as antagonist, time 20-30 min
[24] = target: T1, 5-hydroxytryptamine receptor 5A; test: Agonist activity at human 5-HT5A receptor transfected in HTLA cells assessed as increase in beta-arrestin 2 recruitment at 10 uM incubated for 18 to 20 hrs by bright-Glo reagent based Tango assay; type: functional, cell-based
[25] = target: T1, 5-hydroxytryptamine receptor 5A; test: Agonist activity at human 5-HT5A receptor transfected in HTLA cells assessed as increase in beta-arrestin 2 recruitment by measuring maximal efficacy at 10 uM incubated for 18 to 20 hrs by bright-Glo reagent based Tango assay relative to control; type: functional, cell-based; settings: time 18-20 hrs
[26] = target: D(2) dopamine receptor (Homo sapiens) (UniProt P14416); test: Agonist activity at DRD2 (unknown origin) transfected in HTLA cells assessed as beta-arrestin 2 recruitment at 10 uM incubated for 18 to 20 hrs by luciferin based Tango assay; type: functional, cell-based; settings: filed as agonist, time 18-20 hrs
[27] = target: T4, 5-hydroxytryptamine receptor 2C (Homo sapiens); test: Agonist activity at 5-HT2CR (unknown origin) transfected in HTLA cells assessed as beta-arrestin 2 recruitment at 10 uM incubated for 18 to 20 hrs by luciferin based Tango assay; type: functional, cell-based; settings: filed as agonist, time 18-20 hrs

T1 sequence (P47898 whole entry): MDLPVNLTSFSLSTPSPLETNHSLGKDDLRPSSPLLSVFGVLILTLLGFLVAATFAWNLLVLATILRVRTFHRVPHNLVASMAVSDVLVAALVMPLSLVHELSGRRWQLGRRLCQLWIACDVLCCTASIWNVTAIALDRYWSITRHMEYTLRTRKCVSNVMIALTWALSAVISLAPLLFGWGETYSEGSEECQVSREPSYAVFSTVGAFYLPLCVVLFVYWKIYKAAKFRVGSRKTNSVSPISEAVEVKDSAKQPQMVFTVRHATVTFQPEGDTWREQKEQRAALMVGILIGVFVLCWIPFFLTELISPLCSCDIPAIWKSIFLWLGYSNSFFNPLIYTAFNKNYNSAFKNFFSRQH
Sequence of 5-hydroxytryptamine receptor 2B (P41595 whole entry): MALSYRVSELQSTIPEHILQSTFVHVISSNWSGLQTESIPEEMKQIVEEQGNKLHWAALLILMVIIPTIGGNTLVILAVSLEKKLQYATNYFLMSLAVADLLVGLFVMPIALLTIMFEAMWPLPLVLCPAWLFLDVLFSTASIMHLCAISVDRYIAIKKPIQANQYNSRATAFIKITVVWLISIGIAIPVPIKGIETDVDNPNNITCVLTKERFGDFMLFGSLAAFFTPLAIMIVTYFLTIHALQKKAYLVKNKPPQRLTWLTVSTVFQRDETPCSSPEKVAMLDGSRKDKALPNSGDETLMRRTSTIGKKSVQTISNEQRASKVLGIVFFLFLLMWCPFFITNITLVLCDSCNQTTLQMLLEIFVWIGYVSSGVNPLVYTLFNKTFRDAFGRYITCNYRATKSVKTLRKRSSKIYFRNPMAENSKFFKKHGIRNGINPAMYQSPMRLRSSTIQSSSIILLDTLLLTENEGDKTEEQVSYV
Sequence of 5-hydroxytryptamine receptor 2A (P28223 whole entry): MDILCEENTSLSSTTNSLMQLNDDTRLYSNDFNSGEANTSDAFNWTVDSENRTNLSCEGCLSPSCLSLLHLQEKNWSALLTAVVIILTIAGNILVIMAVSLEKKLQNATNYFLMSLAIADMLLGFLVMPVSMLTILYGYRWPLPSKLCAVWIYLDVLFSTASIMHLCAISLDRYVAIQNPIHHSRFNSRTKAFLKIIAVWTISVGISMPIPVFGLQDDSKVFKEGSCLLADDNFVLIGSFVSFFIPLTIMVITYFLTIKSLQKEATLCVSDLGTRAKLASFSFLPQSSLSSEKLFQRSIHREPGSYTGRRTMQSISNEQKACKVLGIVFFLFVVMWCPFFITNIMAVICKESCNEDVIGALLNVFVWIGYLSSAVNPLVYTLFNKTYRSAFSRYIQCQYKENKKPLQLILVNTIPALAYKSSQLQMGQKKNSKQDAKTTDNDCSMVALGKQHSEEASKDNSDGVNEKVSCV
Sequence of 5-hydroxytryptamine receptor 1D (P28221 whole entry): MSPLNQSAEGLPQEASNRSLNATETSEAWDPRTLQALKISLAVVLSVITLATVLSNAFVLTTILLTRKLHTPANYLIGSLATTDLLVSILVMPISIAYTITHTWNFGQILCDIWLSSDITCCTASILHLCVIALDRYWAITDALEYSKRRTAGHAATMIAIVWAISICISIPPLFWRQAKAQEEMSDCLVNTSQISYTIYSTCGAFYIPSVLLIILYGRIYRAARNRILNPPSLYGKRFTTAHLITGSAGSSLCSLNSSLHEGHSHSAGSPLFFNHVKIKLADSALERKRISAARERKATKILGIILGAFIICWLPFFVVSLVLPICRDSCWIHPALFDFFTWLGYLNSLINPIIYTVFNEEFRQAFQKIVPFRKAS
Sequence of 5-hydroxytryptamine receptor 1B (P28222 whole entry): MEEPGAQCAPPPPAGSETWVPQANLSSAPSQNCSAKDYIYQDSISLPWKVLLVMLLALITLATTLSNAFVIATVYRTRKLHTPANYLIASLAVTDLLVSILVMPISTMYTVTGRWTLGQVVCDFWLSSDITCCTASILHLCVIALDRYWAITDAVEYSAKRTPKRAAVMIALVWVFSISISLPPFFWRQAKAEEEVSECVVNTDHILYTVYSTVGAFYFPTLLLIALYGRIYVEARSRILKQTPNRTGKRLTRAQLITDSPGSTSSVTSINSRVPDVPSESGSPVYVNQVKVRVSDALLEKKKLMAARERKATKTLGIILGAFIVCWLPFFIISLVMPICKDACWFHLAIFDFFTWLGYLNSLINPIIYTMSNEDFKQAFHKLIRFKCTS
Sequence of 5-hydroxytryptamine receptor 7 (Homo sapiens) (P34969 whole entry): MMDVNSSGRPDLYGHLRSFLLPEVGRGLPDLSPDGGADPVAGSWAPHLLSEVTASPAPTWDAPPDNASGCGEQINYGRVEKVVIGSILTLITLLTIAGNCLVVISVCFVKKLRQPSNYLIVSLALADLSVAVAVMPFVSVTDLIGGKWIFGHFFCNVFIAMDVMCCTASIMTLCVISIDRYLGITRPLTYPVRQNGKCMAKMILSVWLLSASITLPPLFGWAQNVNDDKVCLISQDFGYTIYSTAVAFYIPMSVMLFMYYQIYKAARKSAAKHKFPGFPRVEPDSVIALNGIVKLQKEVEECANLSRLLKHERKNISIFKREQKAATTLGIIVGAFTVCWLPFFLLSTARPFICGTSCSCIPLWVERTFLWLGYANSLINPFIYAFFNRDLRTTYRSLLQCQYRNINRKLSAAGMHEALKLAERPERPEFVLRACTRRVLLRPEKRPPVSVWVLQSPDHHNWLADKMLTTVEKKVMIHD
Sequence of D(2) dopamine receptor (Homo sapiens) (P14416 whole entry): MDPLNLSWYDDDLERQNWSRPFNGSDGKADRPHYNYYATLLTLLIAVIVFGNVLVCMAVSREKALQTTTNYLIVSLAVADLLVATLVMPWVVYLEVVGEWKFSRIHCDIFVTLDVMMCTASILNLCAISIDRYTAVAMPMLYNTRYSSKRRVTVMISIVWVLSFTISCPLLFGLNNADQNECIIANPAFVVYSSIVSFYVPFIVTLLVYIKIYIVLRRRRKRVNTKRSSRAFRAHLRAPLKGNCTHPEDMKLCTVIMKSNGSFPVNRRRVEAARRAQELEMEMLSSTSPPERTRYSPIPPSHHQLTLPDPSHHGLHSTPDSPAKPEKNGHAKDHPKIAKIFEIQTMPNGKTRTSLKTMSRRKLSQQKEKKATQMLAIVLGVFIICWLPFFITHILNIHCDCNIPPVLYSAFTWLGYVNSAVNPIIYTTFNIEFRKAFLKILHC
Sequence of Melatonin receptor type 1A (Homo sapiens) (P48039 whole entry): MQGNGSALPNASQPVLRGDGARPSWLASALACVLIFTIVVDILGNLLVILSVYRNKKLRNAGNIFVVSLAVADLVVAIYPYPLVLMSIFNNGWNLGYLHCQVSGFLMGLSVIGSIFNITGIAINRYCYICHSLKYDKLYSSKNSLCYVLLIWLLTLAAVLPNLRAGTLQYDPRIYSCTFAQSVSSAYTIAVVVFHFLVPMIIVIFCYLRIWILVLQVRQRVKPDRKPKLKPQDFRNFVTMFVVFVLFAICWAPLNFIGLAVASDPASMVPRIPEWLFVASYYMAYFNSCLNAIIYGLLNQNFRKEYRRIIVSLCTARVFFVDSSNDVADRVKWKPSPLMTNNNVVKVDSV
Sequence of Atypical chemokine receptor 3 (Homo sapiens) (P25106 whole entry): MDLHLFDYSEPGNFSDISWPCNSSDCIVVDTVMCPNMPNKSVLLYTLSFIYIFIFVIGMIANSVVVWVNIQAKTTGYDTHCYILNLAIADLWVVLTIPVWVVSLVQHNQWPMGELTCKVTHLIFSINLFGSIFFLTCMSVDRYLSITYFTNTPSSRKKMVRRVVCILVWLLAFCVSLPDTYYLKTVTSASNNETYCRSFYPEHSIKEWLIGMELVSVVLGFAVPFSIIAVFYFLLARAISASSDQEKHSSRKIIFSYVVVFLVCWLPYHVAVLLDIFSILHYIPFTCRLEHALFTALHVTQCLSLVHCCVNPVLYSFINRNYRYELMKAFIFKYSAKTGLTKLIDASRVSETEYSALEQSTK

SMILES: CS(=O)(=O)CCCNCc1ccc(Cl)c2cccnc12
Activity (Mus musculus [2]): Active | Activity (Mus musculus [3]): Non-Toxic | Activity (Mus musculus [4]): inactive

SMILES: N#CC1(c2ccccc2)CCC(NCCc2nnc3ccccn23)CC1 (stereo not drawn)
Ki [6]: 28.8 µM | Activity [7]: Active

SMILES: O=C(CCCNCc1ccc(Cl)c2cccnc12)NC1CC1
Ki [6]: 11.5 µM | Activity [7]: Active

SMILES: O=S1(=O)CCC[C@@H](CNCc2cccc3cccnc23)C1
Ki [5]: 0.705 µM

SMILES: CN(C)S(=O)(=O)CCNCc1cccc2ncccc12
Activity (Mus musculus [2]): inactive | Activity [9]: inactive | Activity [10]: inactive | Activity [11]: inactive | Activity [12]: inactive | Activity [13]: inactive | Activity [14]: inactive | Activity [15]: inactive | Activity [16]: inactive | Activity [17]: inactive

SMILES: Clc1ccc(CNC[C@H]2CCn3ccnc3C2)c2ncccc12
Ki [1]: 1.5 µM

SMILES: CN(C)CCN(Cc1ccc(-c2ccc(CNCCc3ccccc3)cc2)cc1)C(=O)CCC1CCCC1
Activity (HEK-293T): Non-Toxic | Ki [20]: < 2 µM | Ki [12]: < 2 µM | Ki [13]: < 2 µM | Ki [14]: < 2 µM | Ki [15]: < 2 µM | Ki [21]: < 2 µM | Ki [22]: < 2 µM | Activity [23]: Dose-Dependent Effect | Activity [7]: Active

SMILES: Clc1ccc(CNCCc2cccnc2)c2ncccc12
Ki [5]: 2.4 µM

SMILES: O=C1C[C@H](CNCc2ccc(Cl)c3cccnc23)CN1C1CC1
Ki [1]: 6.7 µM

SMILES: Cc1cnc(NCc2ccccc2-n2ccnc2)nc1N(C)C
Ki [6]: 12.9 µM | Activity [7]: Active

SMILES: Cc1cnn(C[C@H](C)NCc2cccc(OCc3ccccn3)c2)c1
Ki [6]: 20.9 µM | Activity [7]: Active

SMILES: O=S1(=O)CC[C@@H](CNCc2cccc3cccnc23)C1
Ki [5]: 0.57 µM

SMILES: CC(C)(C)c1ccc2c(c1)CN(C[C@@H](O)COC1CCOCC1)CC2
Ki [6]: 21.4 µM | Activity [7]: Active

The next lines start with results.

Ki [1]: 3.1 µM
SMILES: O=S1(=O)CCC[C@@H](CNCc2ccc(Cl)c3cccnc23)C1

Ki [5]: 0.208 µM
SMILES: CN(C)S(=O)(=O)CCNCc1ccc(Cl)c2cccnc12

fold change (FC) (Homo sapiens): 3.9 | Ki [8]: 0.107 µM
SMILES: CN(C)S(=O)(=O)C1(CNCc2ccc(Cl)c3cccnc23)CC1

Ki [8]: 0.229 µM
SMILES: CN(C)S(=O)(=O)CCNCc1cccc2cccnc12

Ki [1]: 4 µM
SMILES: CN1CC[C@H](CNCc2ccc(Cl)c3cccnc23)CC1=O

Ki [1]: 6.7 µM
SMILES: Clc1ccc(CNCC[C@@H]2CCOC2)c2ncccc12

Activity [18]: inactive | Activity [11]: inactive | Activity [15]: inactive | Activity [19]: inactive | Ki [8]: > 10 µM
SMILES: CCS(=O)(=O)CCCNCc1ccc(Cl)c2cccnc12
Activity (Mus musculus [2]): Active | Activity (Mus musculus [3]): Non-Toxic | Activity (Mus musculus [4]): inactive

Ki [8]: 0.271 µM
SMILES: CN(C)S(=O)(=O)CCNCc1ccc(F)c2cccnc12

EC50 [24]: 3.63 µM | Emax [25]: 10.5%
SMILES: CS(=O)(=O)C1(CNCc2ccc(Cl)c3cccnc23)CC1
Activity (Mus musculus [2]): inactive

EC50 [24]: 0.355 µM | Emax [25]: 18.3% | Activity [26]: Active | Activity [27]: Active | fold change (FC) (Homo sapiens): 25 | Activity [11]: inactive | Activity [15]: inactive | Activity [19]: inactive
SMILES: CS(=O)(=O)C1(CNCc2cccc3cccnc23)CC1
Activity (Mus musculus [2]): Active | Activity (Mus musculus [3]): Non-Toxic | Activity (Mus musculus [4]): inactive
